Legend:
MMP-9 = biological target: T1, MMP-9 (Homo sapiens, UniProt P14780); assay: In vitro inhibition of MMPs by gelatine zymography (MMP-9); format: biochemical; conditions: concentration that inhibited approximately half of the maximal enzymatic activity; MMPs from MCF-7 conditioned media in gelatine SDS gels, incubated overnight at 37° C., pH 7.5; read-out: In vitro inhibition of matrix metalloproteinases (nM) MMP-9
T1 construct: matrix metalloproteinases were obtained from culture media conditioned by MCF-7 human breast cancer cells; endogenous in cells; host or cells: MCF-7 human breast cancer cells (conditioned culture medium)
Description: (§1) The compounds were tested in vitro using the following procedure: matrix metalloproteinases were obtained from culture media conditioned by MCF-7 human breast cancer cells and separated by electrophoresis on SDS-acrylamide gels (7.0%) copolymerised with gelatine (1 mg/ml, Sigma, Mo., USA). The gels containing the MMPs were then incubated with the test compounds overnight in 10 ml buffer (50 mM tris-HCl, pH 7.5, 200 mM NaCl, 5 mM CaCl2, 1 μM ZnCl2, 0.002% NaN3) at 37° C. The gels were stained for 60 min with 0.5% Coomassie brilliant blue R-250 in 10% acetic acid, destained with 10% acetic acid, incubated with 5% glycerol, and dried with a gel drier. The molar concentrations that inhibited approximately half of the maximal enzymatic activity were then determined.

MMP-2/3 = assay: In vitro inhibition of MMPs by gelatine zymography (MMP-2/3); format: biochemical, human; conditions: concentration that inhibited approximately half of the maximal enzymatic activity; MMPs from MCF-7 conditioned media in gelatine SDS gels, incubated overnight at 37° C., pH 7.5; read-out: In vitro inhibition of matrix metalloproteinases (nM) MMP-2/3
Description: as §1

T1 sequence (P14780 94-707): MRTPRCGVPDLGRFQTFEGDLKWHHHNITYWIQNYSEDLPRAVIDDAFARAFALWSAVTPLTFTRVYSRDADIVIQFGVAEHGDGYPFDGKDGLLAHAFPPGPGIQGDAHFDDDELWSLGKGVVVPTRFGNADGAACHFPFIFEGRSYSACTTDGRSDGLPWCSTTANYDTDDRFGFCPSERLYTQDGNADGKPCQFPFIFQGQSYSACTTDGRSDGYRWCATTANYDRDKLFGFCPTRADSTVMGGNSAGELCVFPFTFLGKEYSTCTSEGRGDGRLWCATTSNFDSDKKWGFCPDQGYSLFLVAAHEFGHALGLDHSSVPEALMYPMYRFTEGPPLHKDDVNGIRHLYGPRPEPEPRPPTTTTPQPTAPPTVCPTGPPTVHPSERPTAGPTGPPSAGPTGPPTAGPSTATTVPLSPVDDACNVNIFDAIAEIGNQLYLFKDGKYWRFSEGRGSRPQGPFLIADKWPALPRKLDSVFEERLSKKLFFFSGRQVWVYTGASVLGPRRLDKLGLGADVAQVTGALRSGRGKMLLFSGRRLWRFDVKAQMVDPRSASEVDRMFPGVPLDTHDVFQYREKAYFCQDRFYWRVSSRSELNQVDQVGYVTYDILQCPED

| Structure (SMILES) | IC50 (MMP-9) | IC50 (MMP-2/3) |
| --- | --- | --- |
| CNC(=O)[C@H](Cc1ccccc1)NC(=O)[C@@H](CC(=O)NO)CC(C)C [Comparator 1, N^1 -Hydroxy-3R-isobutyl-N^4-[1S-(methylcarbamoyl)-2-phenylethyl]-succinamide, reference compound] | 10 nM | – |
| CNC(=S)[C@H](Cc1ccccc1)NC(=O)[C@@H](CC(=O)NO)CC(C)C [Example 3, N^4 -Hydroxy-2(R)-isobutyl-N^1-[1(S)-(methylthiocarbamoyl)-2-phenylethyl]-succinamide] | 1 nM | 1 nM |
| CNC(=S)[C@H](Cc1ccccc1)NC(=O)[C@H](CCCc1ccccc1)CC(=O)NO [Example 4, N^4 -Hydroxy-N^1-[1(S)-(methylthiocarbamoyl)-2-Rhenylethyl]-2(R)-phenylpropyl-succinamide] | 1 nM | 1 nM |
| O=C(C[C@@H](CCCc1ccccc1)C(=O)N[C@@H](Cc1ccccc1)C(=S)NCCCc1ccccc1)NO [Example 5] | 1 nM | 1 nM |

— US6277876A, “Matrix metalloproteinase inhibitors” (Leo Pharmaceutical Products Ltd. A/S, priority 1998, dated 2001)
